Test results published in patent EP4635500A1, “THERAPEUTIC AGENT FOR BACTERIAL INFECTION” (Sumitomo Pharma Co., Ltd., priority 2022, dated 2024).
Converted amounts (≈) assume the structure as drawn. Where two headings read alike, the source gives them in different places.

Legend:
A. baumannii = assay: MIC, broth microdilution, CDC/FDA Antibiotic Resistance Isolate Bank (Example 7, Tables 9, 13, 14); type: cell-based, Acinetobacter baumannii; conditions: for MIC: Acinetobacter baumannii, read-out: MIC
P. aeruginosa = assay: MIC, broth microdilution, CDC/FDA Antibiotic Resistance Isolate Bank (Example 7, Tables 10, 15); type: cell-based; conditions: for MIC: Pseudomonas aeruginosa, read-out: MIC
[1] = MIC distribution, metallo-β-lactamase-producing A. baumannii, inhibitor µg/mL in parentheses

SMILES: C[C@H]1[C@H](NC(=O)/C(=N\OC(C)(C)C(=O)O)c2csc(N)n2)C(=O)N1S(=O)(=O)O [Aztreonam, aztreonam]
- MIC (A. baumannii; A. baumannii KUB No. 5585, AR Bank #88, OXA-64, NDM-1): 32 µg/mL (≈ 73.5 µM)
- MIC (A. baumannii; A. baumannii KUB No. 5714, AR Bank #281, OXA-82): 32 µg/mL (≈ 73.5 µM)
- MIC (A. baumannii; KUB No. 5719, AR Bank #286): 32 µg/mL (≈ 73.5 µM)
- MIC (A. baumannii; KUB No. 5720, AR Bank #287): 32 µg/mL (≈ 73.5 µM)
- MIC (A. baumannii; KUB No. 5727, AR Bank #294): 32 µg/mL (≈ 73.5 µM)
- Number of isolates at MIC 32 µg/mL (A. baumannii; [1]): 1
- Number of isolates at MIC >64 µg/mL (A. baumannii; [1]): 3
- MIC against 26 metallo-carbapenemase-producing strains MIC50 (P. aeruginosa; 26 metallo-carbapenemase-producing P. aeruginosa strains, β-lactamase inhibitor µg/mL in parentheses): 16 µg(mL)
- MIC against 96 strains of P. aeruginosa MIC50 (P. aeruginosa; 96 strains of P. aeruginosa, β-lactamase inhibitor µg/mL in parentheses): 16 µg(mL)
- MIC (P. aeruginosa; P. aeruginosa KUB No. 579, AR Bank # 447): 4 µg/mL (≈ 9.19 µM)
- MIC (P. aeruginosa; P. aeruginosa KUB No. 5551, AR Bank # 54): 32 µg/mL (≈ 73.5 µM)
- MIC (P. aeruginosa; P. aeruginosa KUB No. 5561, AR Bank # 64): 16 µg/mL (≈ 36.7 µM)
- MIC (P. aeruginosa; P. aeruginosa KUB No. 5592, AR Bank # 95): 16 µg/mL (≈ 36.7 µM)
- MIC (P. aeruginosa; P. aeruginosa KUB No. 5597, AR Bank # 100): 32 µg/mL (≈ 73.5 µM)
- MIC (P. aeruginosa; P. aeruginosa KUB No. 5600, AR Bank # 103): 16 µg/mL (≈ 36.7 µM)
- MIC (P. aeruginosa; P. aeruginosa KUB No. 5602, AR Bank # 105): 32 µg/mL (≈ 73.5 µM)
- MIC (P. aeruginosa; P. aeruginosa KUB No. 5605, AR Bank # 108): 8 µg/mL (≈ 18.4 µM)
- MIC (P. aeruginosa; P. aeruginosa KUB No. 5607, AR Bank # 110): 4 µg/mL (≈ 9.19 µM)
- MIC (P. aeruginosa; P. aeruginosa KUB No. 5608, AR Bank # 111): 2 µg/mL (≈ 4.59 µM)
- MIC (P. aeruginosa; P. aeruginosa KUB No. 5663, AR Bank # 230): 4 µg/mL (≈ 9.19 µM)
- MIC (P. aeruginosa; P. aeruginosa KUB No. 5665, AR Bank # 232): 4 µg/mL (≈ 9.19 µM)
- MIC (P. aeruginosa; P. aeruginosa KUB No. 5666, AR Bank # 23): 16 µg/mL (≈ 36.7 µM)
- MIC (P. aeruginosa; P. aeruginosa KUB No. 5667, AR Bank # 234): 2 µg/mL (≈ 4.59 µM)
- MIC (P. aeruginosa; P. aeruginosa KUB No. 5669, AR Bank # 236): 2 µg/mL (≈ 4.59 µM)
- MIC (P. aeruginosa; P. aeruginosa KUB No. 5670, AR Bank # 237): 4 µg/mL (≈ 9.19 µM)
- MIC (P. aeruginosa; P. aeruginosa KUB No. 5671, AR Bank # 238): 4 µg/mL (≈ 9.19 µM)
- MIC (P. aeruginosa; P. aeruginosa KUB No. 5672, AR Bank # 239): 32 µg/mL (≈ 73.5 µM)
- MIC (P. aeruginosa; P. aeruginosa KUB No. 5673, AR Bank # 240): 32 µg/mL (≈ 73.5 µM)
- MIC (P. aeruginosa; P. aeruginosa KUB No. 5674, AR Bank # 241): 32 µg/mL (≈ 73.5 µM)
- MIC (P. aeruginosa; P. aeruginosa KUB No. 5675, AR Bank # 242): 4 µg/mL (≈ 9.19 µM)
- MIC (P. aeruginosa; P. aeruginosa KUB No. 5676, AR Bank # 243): 2 µg/mL (≈ 4.59 µM)
- MIC (P. aeruginosa; P. aeruginosa KUB No. 5677, AR Bank # 244): 32 µg/mL (≈ 73.5 µM)
- MIC (P. aeruginosa; P. aeruginosa KUB No. 5678, AR Bank # 245): 16 µg/mL (≈ 36.7 µM)
- MIC (P. aeruginosa; P. aeruginosa KUB No. 5680, AR Bank # 247): 4 µg/mL (≈ 9.19 µM)
- MIC (P. aeruginosa; P. aeruginosa KUB No. 5681, AR Bank # 248): 4 µg/mL (≈ 9.19 µM)
- MIC (P. aeruginosa; P. aeruginosa KUB No. 5682, AR Bank # 249): 32 µg/mL (≈ 73.5 µM)
- MIC (P. aeruginosa; P. aeruginosa KUB No. 5684, AR Bank # 251): 32 µg/mL (≈ 73.5 µM)
- MIC (P. aeruginosa; P. aeruginosa KUB No. 5685, AR Bank # 252): 32 µg/mL (≈ 73.5 µM)
- MIC (P. aeruginosa; P. aeruginosa KUB No. 5686, AR Bank # 253): 16 µg/mL (≈ 36.7 µM)
- MIC (P. aeruginosa; P. aeruginosa KUB No. 5687, AR Bank # 254): 4 µg/mL (≈ 9.19 µM)
- MIC (P. aeruginosa; P. aeruginosa KUB No. 5688, AR Bank # 255): 8 µg/mL (≈ 18.4 µM)
- MIC (P. aeruginosa; P. aeruginosa KUB No. 5689, AR Bank # 256): 4 µg/mL (≈ 9.19 µM)
- MIC (P. aeruginosa; P. aeruginosa KUB No. 5690, AR Bank # 257): 8 µg/mL (≈ 18.4 µM)
- MIC (P. aeruginosa; P. aeruginosa KUB No. 5691, AR Bank # 258): 4 µg/mL (≈ 9.19 µM)
- MIC (P. aeruginosa; P. aeruginosa KUB No. 5692, AR Bank # 259): 4 µg/mL (≈ 9.19 µM)
- MIC (P. aeruginosa; P. aeruginosa KUB No. 5693, AR Bank # 260): 8 µg/mL (≈ 18.4 µM)
- MIC (P. aeruginosa; P. aeruginosa KUB No. 5694, AR Bank # 261): 4 µg/mL (≈ 9.19 µM)
- MIC (P. aeruginosa; P. aeruginosa KUB No. 5695, AR Bank # 262): 16 µg/mL (≈ 36.7 µM)
- MIC (P. aeruginosa; P. aeruginosa KUB No. 5696, AR Bank # 263): 2 µg/mL (≈ 4.59 µM)
- MIC (P. aeruginosa; P. aeruginosa KUB No. 5697, AR Bank # 264): 2 µg/mL (≈ 4.59 µM)
- MIC (P. aeruginosa; P. aeruginosa KUB No. 5698, AR Bank # 265): 8 µg/mL (≈ 18.4 µM)
- MIC (P. aeruginosa; P. aeruginosa KUB No. 5699, AR Bank # 266): 4 µg/mL (≈ 9.19 µM)
- MIC (P. aeruginosa; P. aeruginosa KUB No. 5700, AR Bank # 267): 4 µg/mL (≈ 9.19 µM)
- MIC (P. aeruginosa; P. aeruginosa KUB No. 5701, AR Bank # 268): 32 µg/mL (≈ 73.5 µM)
- MIC (P. aeruginosa; P. aeruginosa KUB No. 5702, AR Bank # 269): 16 µg/mL (≈ 36.7 µM)
- MIC (P. aeruginosa; P. aeruginosa KUB No. 5703, AR Bank # 270): 2 µg/mL (≈ 4.59 µM)
- MIC (P. aeruginosa; P. aeruginosa KUB No. 5704, AR Bank # 271): 16 µg/mL (≈ 36.7 µM)
- MIC (P. aeruginosa; P. aeruginosa KUB No. 5705, AR Bank # 272): 4 µg/mL (≈ 9.19 µM)
- MIC (P. aeruginosa; P. aeruginosa KUB No. 5749, AR Bank # 353): 8 µg/mL (≈ 18.4 µM)
- MIC (P. aeruginosa; P. aeruginosa KUB No. 5750, AR Bank # 354): 16 µg/mL (≈ 36.7 µM)
- MIC (P. aeruginosa; P. aeruginosa KUB No. 5754, AR Bank # 358): 32 µg/mL (≈ 73.5 µM)
- MIC (P. aeruginosa; P. aeruginosa KUB No. 5755, AR Bank # 359): 32 µg/mL (≈ 73.5 µM)
- MIC (P. aeruginosa; P. aeruginosa KUB No. 5756, AR Bank # 360): 16 µg/mL (≈ 36.7 µM)
- MIC (P. aeruginosa; P. aeruginosa KUB No. 5785, AR Bank # 439): 4 µg/mL (≈ 9.19 µM)
- MIC (P. aeruginosa; P. aeruginosa KUB No. 5786, AR Bank # 440): 32 µg/mL (≈ 73.5 µM)
- MIC (P. aeruginosa; P. aeruginosa KUB No. 5789, AR Bank # 444): 8 µg/mL (≈ 18.4 µM)
- MIC (P. aeruginosa; P. aeruginosa KUB No. 5800, AR Bank # 457): 32 µg/mL (≈ 73.5 µM)
- MIC (P. aeruginosa; P. aeruginosa KUB No. 5805, AR Bank # 863): 16 µg/mL (≈ 36.7 µM)
- MIC (P. aeruginosa; P. aeruginosa KUB No. 5813, AR Bank # 508): > 0.064 µg/mL
- MIC (P. aeruginosa; P. aeruginosa KUB No. 5814, AR Bank # 509): 0.008 µg/mL (≈ 0.0184 µM)
- MIC (P. aeruginosa; P. aeruginosa KUB No. 5815, AR Bank # 510): 0.0005 µg/mL (≈ 0.00115 µM)
- MIC (P. aeruginosa; P. aeruginosa KUB No. 5816, AR Bank # 511): 0.004 µg/mL (≈ 0.00919 µM)
- MIC (P. aeruginosa; P. aeruginosa KUB No. 5817, AR Bank # 512): 0.032 µg/mL (≈ 0.0735 µM)
- MIC (P. aeruginosa; P. aeruginosa KUB No. 5818, AR Bank # 513): 0.032 µg/mL (≈ 0.0735 µM)
- MIC (P. aeruginosa; P. aeruginosa KUB No. 5819, AR Bank # 514): 0.004 µg/mL (≈ 0.00919 µM)
- MIC (P. aeruginosa; P. aeruginosa KUB No. 5820, AR Bank # 515): 0.032 µg/mL (≈ 0.0735 µM)
- MIC (P. aeruginosa; P. aeruginosa KUB No. 5821, AR Bank # 516): > 0.064 µg/mL
- MIC (P. aeruginosa; P. aeruginosa KUB No. 5823, AR Bank # 518): > 0.064 µg/mL
- MIC (P. aeruginosa; P. aeruginosa KUB No. 5831, AR Bank # 526): 0.004 µg/mL (≈ 0.00919 µM)
- MIC (P. aeruginosa; P. aeruginosa KUB No. 5832, AR Bank # 527): 0.032 µg/mL (≈ 0.0735 µM)
- MIC (P. aeruginosa; P. aeruginosa KUB No. 5834, AR Bank # 529): 0.008 µg/mL (≈ 0.0184 µM)
